From patent publication US7462640B2, “Indol-6yl sulfonamide derivatives, their preparation and their use as 5-HT-6 as modulators” (Laboratorios del Dr. Esteve S.A., priority 2003, dated 2008)

Compound | melting point
CN(C)CCn1ccc2ccc(NS(=O)(=O)c3cc(Cl)cc(Cl)c3)cc21 [Example 8, N-[1-(2-dimethylaminoethyl)-1H-indole-6-yl]-3,5-dichlorobenzenesulfonamide] | 150 to 159 °C
CN(C)CCn1ccc2ccc(NS(=O)(=O)c3cccc4ccccc34)cc21 [Example 3, N-[1-(2-Dimethylaminoethyl)-1H-indole-6-yl]-naphthalene-1-sulfonamide] | 139 to 142 °C
CN(C)CCn1ccc2ccc(NS(=O)(=O)c3ccc4ccccc4c3)cc21 [Example 2, N-[1-(2-Dimethylaminoethyl)-1H-indole-6-yl]-naphthalene-2-sulfonamide] | 140 to 143 °C
